Laboratory results taken from patent publication US20240239801A1, “PYRIMIDO[5,4,D]PYRIMIDINE COMPOUNDS, COMPOSITIONS COMPRISING THEM AND USES THEREOF” (Université de Montréal, priority 2021, published 2024).

Biological target: T1, ARAF (Homo sapiens, UniProt P10398)
T1 sequence (P10398 310-570 limits assumed): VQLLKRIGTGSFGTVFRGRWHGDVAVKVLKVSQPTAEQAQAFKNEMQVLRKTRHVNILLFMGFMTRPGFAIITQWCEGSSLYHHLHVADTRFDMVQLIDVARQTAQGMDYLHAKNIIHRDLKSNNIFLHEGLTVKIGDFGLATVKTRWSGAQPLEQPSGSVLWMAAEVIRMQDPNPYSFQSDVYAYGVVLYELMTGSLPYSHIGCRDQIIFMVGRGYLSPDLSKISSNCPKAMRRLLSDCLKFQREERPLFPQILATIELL
Test: ARAF kinase activity assay (AlphaLISA p-MEK detection)
Type: biochemical
Conditions: Table A
Experimental: Compound preparation: solid samples of each substances in 1dram vials were suspended in DMSO (Fisher Scientific) at a stock concentration of 20 mM. Stocks were kept at −20° C. and protected from light. If solubility of the compound at 20 mM appeared to be an issue, the initial concentration of the DMSO stock was changed to 10 mM or 5 mM.
In vitro enzymatic reactions were used for evaluating compounds intrinsic activity against BRAF, CRAF and ARAF. For BRAF and CRAF, 0.375 nM of purified GST-tagged kinases (cat #B4062-10UG and cat #R1656-10UG respectively from Millipore Sigma) were incubated with 75 nM of kinase-dead MEK1 substrate (cat #40075; BPS Bioscience) in the presence of 10 μM of Ultrapure ATP (cat #V9102; Promega; part V915A) with and without the test compound in a buffer containing 50 mM HEPES pH 7.5, 10 mM MgCl2, 1 mM EDTA, 0.01% Brij-35 and 2 mM DTT. Separate reactions were performed with the MEK1 substrate and ATP as a blank control. ARAF, kinase reactions were rigorously the same with the exception that kinase concentration was raised to 3.75 nM (cat #1768-0000-1; Reaction Biology).
For compound treatment, 5 μL/well of test substance solution are placed in a 384-well proxyplate (Perkin Elmer) and mixed with 2× concentrated kinase reactions. The dilution series is selected so that nine concentrations cover a range from 100 nM to 0.01 nM. […] The final concentration of DMSO in the assay is set at 0.05%.
ARAF kinase reactions were carried out for a total of 2 hours at 30° C. and then stopped by addition of EDTA at a final concentration of 40 mM. Reactions were then detected using the AlphaLISA® SureFire® Ultra™ p-MEK ½ (Ser218/222) (PerkinElmer) kit. Reactions were performed with 5 μL of kinase reaction according to the manufacturer's specifications in 384-well proxyplates (Perkin Elmer) followed by overnight incubation of the reactions at room temperature in a humidified chamber. After completion of the detection reactions, the signals were recorded on a Synergy Neo2 plate reader (Biotek) equipped with AlphaLISA® filters. The effect of each compound dilution on the pMEK signal generated by ARAF reactions was expressed in % inhibition and calculated as follows. An internal 100% inhibition control (average of luminescence in kinase reactions comprising kinase dead MEK1 substrate alone) was included in each plate to measure of pMEK background and was subtracted from each data point. The average of DMSO (vehicle) controls (set as 0% inhibition) was also established and used to calculate % inhibition:
IC50 values were obtained by plotting the kinase inhibition values and fitting the dose-activity curves using a log(agonist) versus response−variable slope (four parameters) function using either GraphPadPrism (V7.0) or Dotmatics Screening Ultra platform. Standards included in the ARAF kinase assay were Belvarafenib (MedChem Express cat #HY-109080; CAS #1446113-23-0), LXH254 (MedChem Express cat #HY-112089; CAS #1800398-38-2) and BGB283 (cat #HY-18957; CAS #1446090-79-4).

| IC50 | SMILES |
| --- | --- |
| > 20 nM | COc1ccc(S(=O)(=O)Nc2ccc(F)c(Nc3ncnc4cnc(-n5cnc6c(N)cccc65)nc34)c2F)c(C)c1Cl [Example 112] |
| > 20 nM | Cc1ccc2c(Nc3cccc(Cl)c3F)nccc2c1NC(=O)c1csc2c(N)ncnc12 [Belvarafenib, reference compound] |
| 10 to 20 nM | Cc1c(F)cccc1S(=O)(=O)Nc1ccc(F)c(Nc2ncnc3cnc(-n4cc(C(=O)N(C)Cc5ccncc5)c5ccccc54)nc23)c1F [Example 98] |
| < 10 nM | Cc1c(F)cccc1S(=O)(=O)Nc1ccc(F)c(Nc2ncnc3cnc(-n4cnc5c(-c6cccnc6)cccc54)nc23)c1F [Example 114] |
| 10 to 20 nM | O=S(=O)(Nc1ccc(F)c(Nc2ncnc3cnc(-n4cnc5c(N6CCC7(CCCO7)CC6)cccc54)nc23)c1F)c1cccc(Cl)c1Cl [Example 129] |
